This note sets out measurements from patent EP0516725B1, “NEW USE OF LINOMIDE (R)” (Pharmacia AB (reg.number 556131-9608), priority 1990, dated 1991).

In one series the test system is SIVsm. Put plainly: SIVsm infection of cynomolgus monkeys (body weight, CD4 cells, virus isolation, clinical state). The settings on record: result in words.
The subject of series [1] is spleen T lymphocyte subpopulations. Put plainly: Spleen T lymphocyte subpopulations by direct immunofluorescence after treatment of mice. It is filed as in vivo, C57B1/6 mice. The settings on record: 160 mg/kg/day in the drinking water for 4 days. The protocol: C57B1/6 mice were given Linomide® (160 mg/kg/day) in the drinking water for 4 days. Control animals were given ordinary drinking water. […] 134:3956, 1985] and examined for the expression of cell surface markers by direct immunofluorescence. The following FITC-labeled monoclonal antibodies were used: HO-134 (Thy 1.2), GK 1.5 (CD4) and 19. 178c (CD8) [for reference to antibodies see Kalland, T.: Regulation of NK progenitors: Studies with a novel immunmodulator with distinct effects at the precursor level, J. Immunol. 144:4472-6, 1990]. The number of positive cells was determined by counting 400 cells in an epifluoroscence equipped Leitz microscope. Values represent mean ± SD of three mice.

The nature of a further series: Half life in rats. The note with it: rat, in vivo.
Series [2] is described as follows: Half life in cynomolgus monkeys. The class given is in vivo.
The nature of a further series: Half life in humans. The settings on record: human, in vivo.
Another series deals with YAC-1 cells. Put plainly: Spleen NK activity, conventional 51Cr-release assay after treatment of mice. The note with it: 160 mg/kg/day in the drinking water for four days; for % CYTOTOXICITY: 3 mice.
The next series in a line: Half life in mice. The class given is in vivo.
[3] abbreviates: spleen cells, mean ± SD of three mice.

Molecules are shown by their SMILES.

Source text for SIVsm: Nine cynomolgus monkeys (Macaca Fascicularis) were used in this study. The mean body mass was 2600 g and the range was 2260 to 2930 g. The monkeys were housed in single cages in a biosafety level three facility. […] The absence of pre-existing retrovirus was further investigated by cocultivating monkey PBMC (=peripheral blood mononuclear cells) with human PHA-stimulated PBMC and testing of culture supernatants for reverse transcriptase activity.
Intraperitoneal treatment with Linomide® or NaCl started four days before challenge with live virus and subsequently every day (not during weekends) subcutaneosly during the time of follow-up. The follow-up is 75 days after live virus challenge. Monkeys L1-3 were treated with a low dose Linomide® 0.3 mg/kg bw x 2 Monkeys L4-6 were treated with a high dose Linomide® 3 mg/kg bw x 2 Monkeys L7-9 were given sodium chloride x 2 All monkeys were challenged with 10-100 animal ID₅₀ of live SIVsm. Animals were sacrificed when they became moribund.
T-lymphocyte subsets in peripheral blood were determined by immunofluorescence as previously described [Putkonen, P., Warstedt, K., Thorstensson, R., Benthin, R., Albert, J., Lundgren, B., Öberg, B., Norrby, E., Biberfeld, G.: Experimental infection of cynomolgus monkeys (Macaca Fascicularis with simian immunodeficiency virus (SIVsm), J. AIDS 1989:2, 359-365]. Peripheral blood samples were incubated with FITC-conjugated anti-CD4 (OKT4, Ortho) and anti-CD8 (Leu2, Becton Dickinson). The samples were analyzed in a Spectrum III flow cytometer (Ortho Diagnostics).

Consider `CN(C(=O)c1c(O)c2ccccc2n(C)c1=O)c1ccccc1` [Linomide®, N-phenyl-N-methyl-1,2-dihydro-4-hydroxy-1-methyl-2-oxo-quinoline-3-carboxamide], for which the “qualitative virus isolation assay” value in the series on SIVsm (all monkeys (low dose, high dose and control), 14 days after challenge) is on record as “virus could be isolated from all monkeys”. Moreover, the body weight entry in the series on SIVsm (high dose group (3 mg/kg bw x 2), one monkey) was “dramatic reduction in body weight”; in the series with SIVsm (monkeys L1-3, 0.6 mg/kg/day) it was “Only a slight weight reduction”. The “percentage of CD4⁺ cells in peripheral blood” value in the series on SIVsm (low dose (0.3 mg/kg bw x 2)) was “essentially unaltered”. For the same molecule, the clinical condition result in the series with SIVsm (monkeys L1-3 = low dose (0.3 mg/kg bw x 2)) is recorded as “remained clinically healthy”. The “% Fluorescent cells CD4” value in series [1] (setting [3]) is recorded as 28±2%. For the same molecule, the “% Fluorescent cells CD8” value in series [1] (setting [3]) turned out to be 10±3%. Besides, the “% Fluorescent cells Thy 1.2” value in series [1] (setting [3]) was found to be 42±5%. Moreover, in series [1] (result in words), the “distribution of T lymphocyte subpopulations” value is on record as “do not significantly altler the distribution of T lymphocyte subpopulations”. Besides, the half-life (in general, the time needed for the level to fall by half in the phase considered) in the series “Half life in rats” is 24 h; in “Half life in humans”, approximately 48 h. Also, the half life result in series [2] is “six”; in “Half life in mice”, “two”. Besides, the “% CYTOTOXICITY” value with YAC-1 cells (Effector cell: Target cell ratio 25:1) was 14±4%; with YAC-1 cells (Effector cell: Target cell ratio 50:1), 20±4%; in the series with YAC-1 cells (Effector cell: Target cell ratio 100:1), 29±5%. The NK activity entry with YAC-1 cells (result in words) was “significantly enhances NK activity”.
